Measurements taken from ChEMBL document CHEMBL2331526, “Synthesis and characterization of novel quick-release propofol prodrug via lactonization” (Bioorg Med Chem Lett, 2013).
Calls of active or inactive are those of the source. The rule behind the calls is not given here.

Legend:
Rattus norvegicus [1] = experiment: Anesthetic effect in Sprague-Dawley rat assessed as duration time of disappearance of righting reflex to recovery of righting reflex at 2 times ED50, iv; type: functional
Rattus norvegicus [2] = experiment: Anesthetic effect in Sprague-Dawley rat assessed as onset time of disappearance of the righting reflex at 2 times ED50, iv; type: functional
[3] = Toxicity in iv dosed Sprague-Dawley rat; type: organism-based; details: in vivo
[4] = Therapeutic index, ratio of LD50 for Sprague-Dawley rat to ED50 for Sprague-Dawley rat; type: organism-based; details: in vivo, read-out: TI
Rattus norvegicus [5] = experiment: Anesthetic effect in iv dosed Sprague-Dawley rat assessed as disappearance of the righting reflex; type: functional
Rattus norvegicus [6] = experiment: Anesthetic effect in Sprague-Dawley rat assessed as disappearance of the righting reflex at 34 mg/kg, iv; type: functional, organism-based; set-up: dose 34 mg/kg
Rattus norvegicus [7] = experiment: Toxicity in Sprague-Dawley rat assessed as duration of systemic convulsions at 34 mg/kg, iv; type: organism-based; set-up: dose 34 mg/kg, route intravenous; details: in vivo
Rattus norvegicus [8] = experiment: Toxicity in Sprague-Dawley rat assessed as duration of systemic convulsions at 40 mg/kg, iv; type: organism-based; set-up: dose 40 mg/kg, route intravenous; details: in vivo
[9] = Solubility of the compound in water; type: physicochemical; details: buffer
[10] = Drug degradation in 30% emulsion at 5 umol/ml measured up to 4 hrs by HPLC analysis; type: physicochemical; details: 5000 µM
[11] = Drug degradation in aqueous ethanol at 5 umol/ml measured up to 4 hrs by HPLC analysis; type: physicochemical; details: buffer, 5000 µM
Plasma = experiment: Prodrug activation in preheated rat plasma assessed as propofol release at 5 umol/ml measured up to 4 hrs by HPLC analysis; type: cell-free; details: 5000 µM
Rattus norvegicus [12] = experiment: Anesthetic effect in Sprague-Dawley rat assessed as disappearance of the righting reflex at 200 mg/kg, iv; type: functional, organism-based; set-up: dose 200 mg/kg

Compound | Time (Rattus norvegicus [1]) [min] | Time (Rattus norvegicus [2]) [min] | LD50 [3] [mg/kg] | selectivity ratio [4] | ED50 (Rattus norvegicus [5]) [mg/kg] | Activity (Rattus norvegicus [6]) | Activity (Rattus norvegicus [7]) | Time (Rattus norvegicus [8]) [min] | solubility [9] | Stability [10] | Stability [11] | Drug metabolism (Plasma) | Activity (Rattus norvegicus [12])
CC(C)c1cccc(C(C)C)c1OCOP(=O)([O-])[O-].[Na+].[Na+] [FOSPROPOFOL DISODIUM] | 31.04 | 2.17 | 163 | 4.69 | 34.8 | – | – | – | – | – | – | – | –
CC(C)c1cccc(C(C)C)c1OCCCCO | – | – | – | – | – | inactive | Toxic | 3.8 | Insoluble | – | – | – | –
CC(C)c1cccc(C(C)C)c1OC(=O)CCCOP(=O)([O-])[O-].[Na+].[Na+] | 27.49 | 2.11 | 288 | 6.48 | 44.5 | – | – | – | soluble | – | – | – | –
CC(C)c1cccc(C(C)C)c1OC(=O)CCCO | 24.36 | 0.06 | 81.5 | 4.67 | 17.5 | – | – | – | – | Stable | Stable | Active | –
CC(C)c1cccc(C(C)C)c1OC(=O)CCCOC(=O)CN.O=C(O)C(F)(F)F | 12.74 | 0.26 | 42.7 | 2.96 | 14.4 | – | – | – | soluble | – | – | – | –
CCCC(=O)Oc1c(C(C)C)cccc1C(C)C | – | – | – | – | – | – | – | – | Insoluble | – | – | – | inactive
CC(C)c1cccc(C(C)C)c1O [PROPOFOL] | 8.41 | 0 | 27.1 | 4.12 | 6.57 | – | – | – | – | – | – | – | –
